How the values were obtained:
[1] = assay type: in vivo, mouse; settings: for accumulation in the eye compared with emixustat / distribution within ocular tissue: single 380 nmol i.p. dose
[2] = 3 h after single 380 nmol i.p. dose
[3] = biological target: T1, RPE65 (Bos taurus, UniProt Q28175); assay: RPE65 retinoid isomerase activity assay; settings: ratio of IC50 values
[4] = biological target: T1, RPE65; settings: RPE65 inhibition; cited from earlier work

T1 sequence (Q28175 whole entry): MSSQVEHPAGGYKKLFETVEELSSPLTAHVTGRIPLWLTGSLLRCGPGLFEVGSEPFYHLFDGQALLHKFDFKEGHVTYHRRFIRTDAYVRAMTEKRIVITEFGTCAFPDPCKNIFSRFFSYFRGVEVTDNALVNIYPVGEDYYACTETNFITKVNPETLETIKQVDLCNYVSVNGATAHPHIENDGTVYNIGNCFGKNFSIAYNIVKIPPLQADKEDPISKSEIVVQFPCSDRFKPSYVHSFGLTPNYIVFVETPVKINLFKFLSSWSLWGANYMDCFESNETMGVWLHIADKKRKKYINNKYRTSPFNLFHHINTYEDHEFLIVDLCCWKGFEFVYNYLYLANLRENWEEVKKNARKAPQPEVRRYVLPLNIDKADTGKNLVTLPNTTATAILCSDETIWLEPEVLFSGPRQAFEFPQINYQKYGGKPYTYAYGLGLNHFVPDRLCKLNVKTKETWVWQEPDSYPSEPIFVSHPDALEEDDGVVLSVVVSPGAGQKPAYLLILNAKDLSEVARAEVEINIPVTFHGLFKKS

SMILES | accumulation in the eye compared with emixustat [1] | initial plasma (serum) level [2] | distribution within ocular tissue [1] | also measured
[2H]C([2H])(N)CC(O)c1cccc(OCC2CCC(F)(F)CC2)c1 (stereo not shown) [Compound 59, 3-Amino-1-(3-((4,4-difluorocyclohexyl)methoxy)phenyl)propan-3,3-d2-1-ol] | accumulate more |  |  | 
CCCC(CCC)COc1cc([C@H](O)CCN)ccc1F [Compound 24, (R)-3-Amino-1-(4-fluoro-3-((2-propylpentyl)oxy)phenyl)propan-1-ol] |  | highest initial plasma levels | poorest distribution within ocular tissue | inhibitory potency relative to racemic emixustat [3]: 3 times
CCCC(CCC)COc1cccc([C@H](O)CCN)c1 [(R)-MB-004] |  |  |  | IC50 [4]: 106 ± 16 nM
NCCC(O)c1cccc(OCC2CCC(F)(F)CC2)c1 (stereo not shown) [Compound 57, 3-Amino-1-(3-((4,4-difluorocyclohexyl)methoxy)phenyl) propan-1-ol] | accumulate more |  |  | eye amount relative to compounds 24 and 49 ([1]; day 7 after single i.p. dose): 10 times; eye amount relative to emixustat ([1]; day 7 after single i.p. dose): 5 times
NCCC(O)c1ccc(F)c(OCC2CCCCC2)c1 (stereo not shown) [Compound 49, 3-Amino-1-(3-(cyclohexylmethoxy)-4-fluorophenyl)propan-1-ol] |  | highest initial plasma levels | poorest distribution within ocular tissue | 

From publication PMC8381290 (Journal of medicinal chemistry, 2021)
